How the values were obtained:
KAT6A = biological target: T1, KAT6A (Homo sapiens, UniProt Q92794); assay: KAT6A enzyme inhibition assay (SAMDI mass spectrometry); format: biochemical; settings: His-TEV-KAT6A 501-784 enzyme construct
T1 construct: His-TEV tag (N, cleaved yes); made in house

KAT5 = biological target: T2, KAT5 (Homo sapiens, UniProt Q92993); assay: KAT5 enzyme inhibition assay (SAMDI mass spectrometry); format: biochemical; settings: His-TEV-FL KAT5-Flag enzyme construct
T2 construct: His-TEV tag (N, cleaved yes); made in house
T2 sequence (Q92993 with tags, fused parts or gaps): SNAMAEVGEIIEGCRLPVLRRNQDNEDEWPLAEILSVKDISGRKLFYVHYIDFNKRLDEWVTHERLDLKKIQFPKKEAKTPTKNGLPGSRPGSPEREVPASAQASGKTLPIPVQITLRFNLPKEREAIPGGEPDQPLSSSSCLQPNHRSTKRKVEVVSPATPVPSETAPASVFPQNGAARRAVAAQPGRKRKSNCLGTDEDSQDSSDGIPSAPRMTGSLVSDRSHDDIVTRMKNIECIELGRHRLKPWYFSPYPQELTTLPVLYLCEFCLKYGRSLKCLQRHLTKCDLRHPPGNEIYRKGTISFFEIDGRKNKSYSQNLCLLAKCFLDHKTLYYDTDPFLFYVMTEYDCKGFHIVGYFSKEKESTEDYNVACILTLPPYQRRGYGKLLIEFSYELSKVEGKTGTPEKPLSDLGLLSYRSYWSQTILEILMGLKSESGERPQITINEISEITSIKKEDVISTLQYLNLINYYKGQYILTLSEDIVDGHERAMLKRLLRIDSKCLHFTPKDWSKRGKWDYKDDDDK

T1 sequence (Q92794 with tags, fused parts or gaps): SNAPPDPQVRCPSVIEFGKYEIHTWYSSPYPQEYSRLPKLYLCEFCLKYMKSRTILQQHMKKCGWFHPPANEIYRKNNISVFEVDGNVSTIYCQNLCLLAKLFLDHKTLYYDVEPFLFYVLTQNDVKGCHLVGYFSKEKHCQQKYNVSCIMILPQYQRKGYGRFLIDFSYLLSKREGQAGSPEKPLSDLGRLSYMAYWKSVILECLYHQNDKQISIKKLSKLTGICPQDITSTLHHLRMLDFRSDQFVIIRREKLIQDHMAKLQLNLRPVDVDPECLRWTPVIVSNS

IC50 (KAT6A)	IC50 (KAT5)	SMILES
10 to 50 µM	> 100 µM	Cc1cc(-c2ccccc2)cc(C(=O)NN(C)S(=O)(=O)c2ccccc2)c1F [Compound I-242]
> 100 µM	> 100 µM	Cc1c(-c2ccccc2)ccc(F)c1C(=O)NNS(=O)(=O)C1CCC1 [Compound I-243]
≤ 10 µM	10 to 50 µM	CNC(=O)c1ccc(S(=O)(=O)NNC(=O)c2cc(-c3ccccc3)cc(C)c2F)cc1 [Compound I-244]
> 100 µM	> 100 µM	O=S(=O)(NNCc1ccccc1F)c1ccccc1 [Compound I-245]
≤ 10 µM	50 to 100 µM	O=C(NNS(=O)(=O)c1ccc2ccccc2c1)c1cccc(-c2ccccc2)c1 [Compound I-246]
10 to 50 µM	50 to 100 µM	COc1ccc(Cn2ncc3c(C(=O)NNS(=O)(=O)c4ccccc4)cc(-c4ccccc4)cc32)cc1 [Compound I-247]
10 to 50 µM	50 to 100 µM	COc1ccc(Cn2cnc3c(C(=O)NNS(=O)(=O)c4ccccc4)cc(-c4ccccc4)cc32)cc1 [Compound I-248]
> 100 µM	> 100 µM	Cc1c(-c2ccccc2)ccc(F)c1C(=O)NNS(=O)(=O)C1CCCC1 [Compound I-249]
≤ 10 µM	≤ 10 µM	O=C(NNS(=O)(=O)c1ccccc1)c1cc(-c2ccccc2)cc(F)c1F [Compound I-250]
≤ 10 µM	50 to 100 µM	Cc1c(-c2ccccc2)ccc(F)c1C(=O)NNS(=O)(=O)c1ccccc1 [Compound I-251]
50 to 100 µM	> 100 µM	O=C(NNS(=O)(=O)c1ccccc1)c1ncccc1F [Compound I-252]
10 to 50 µM	50 to 100 µM	O=C(NNS(=O)(=O)c1ccccc1)c1cc(-c2ccccc2)ccc1F [Compound I-253]
> 100 µM	> 100 µM	O=C(NNS(=O)(=O)c1ccccc1)N1CCCCC1 [Compound I-254]
≤ 10 µM	≤ 10 µM	Cc1cc(-c2ccccc2)cc(C(=O)NNS(=O)(=O)c2cccc(C(=O)N(C)C)c2)c1F [Compound I-255]
≤ 10 µM	50 to 100 µM	Cc1cc(-c2ccccc2)cc(C(=O)NNS(=O)(=O)c2cccc(C(=O)O)c2)c1F [Compound I-256]
> 100 µM	> 100 µM	Cc1cc(-c2ccccc2)cc(C(=O)N[C@@H](C#N)C2CCCCC2)c1F [Compound I-257]
50 to 100 µM	50 to 100 µM	Cc1c(-c2ccccc2)ccc(F)c1C(=O)NNS(=O)(=O)CC1CCCCC1 [Compound I-258]
≤ 10 µM	10 to 50 µM	Cn1cnc(-c2ccc(F)c(C(=O)NNS(=O)(=O)c3ccccc3)c2F)c1 [Compound I-259]
> 100 µM	> 100 µM	CC(C)C(Cc1ccccc1)C(=O)NNS(=O)(=O)c1ccccc1 (centres unmarked) [Compound I-260]
≤ 10 µM	≤ 10 µM	Cc1cc(-c2ccccc2)cc(C(=O)NNS(=O)(=O)c2cccc(CO)c2)c1F [Compound I-261]
≤ 10 µM	50 to 100 µM	O=C(NNS(=O)(=O)c1ccccc1)c1cc2ccccc2cc1F [Compound I-262]
≤ 10 µM	≤ 10 µM	Cc1cc(-c2ccccc2)cc(C(=O)NNS(=O)(=O)c2ccccc2Cl)c1F [Compound I-263]
50 to 100 µM	> 100 µM	O=C(NNS(=O)(=O)c1ccccc1)c1c(F)ccc(-c2ncc[nH]2)c1F [Compound I-264]
> 100 µM	> 100 µM	CC(C)C(Cc1ccccc1)CS(=O)(=O)NNC(=O)c1ccccc1 (centres unmarked) [Compound I-265]
> 100 µM	> 100 µM	Cc1cccc(F)c1C(=O)NNS(=O)(=O)CC(Cc1ccccc1)C(C)C (centres unmarked) [Compound I-266]

IC50 (KAT6A)	IC50 (KAT5)	SMILES
≤ 10 µM	≤ 10 µM	Cc1cc(-c2ccccc2)cc(C(=O)NNS(=O)(=O)CC2CCOCC2)c1F [Compound I-267]
10 to 50 µM	10 to 50 µM	Cc1c(-c2ccccc2)ccc(F)c1C(=O)NNS(=O)(=O)CC(Cc1ccccc1)C(C)C (centres unmarked) [Compound I-268]
10 to 50 µM	≤ 10 µM	Cc1cc(-c2ccccc2F)cc(C(=O)NNS(=O)(=O)CC2CCCCC2)c1F [Compound I-269]
10 to 50 µM	≤ 10 µM	COCCOc1cccc(-c2cc(C)c(F)c(C(=O)NNS(=O)(=O)CC3CCCCC3)c2)c1 [Compound I-270]
≤ 10 µM	≤ 10 µM	Cc1cc(-c2ccccc2F)cc(C(=O)NNS(=O)(=O)c2ccccc2)c1F [Compound I-271]
50 to 100 µM	10 to 50 µM	COCCOc1cccc(-c2cc(C)c(F)c(C(=O)NNS(=O)(=O)C3CCCCC3)c2)c1 [Compound I-272]
50 to 100 µM	> 100 µM	Cc1cccc(-c2ccc(F)c(C(=O)NNS(=O)(=O)c3ccccc3)c2C)c1 [Compound I-273]
≤ 10 µM	≤ 10 µM	Cc1cc(-c2cccc(F)c2)cc(C(=O)NNS(=O)(=O)CC2CCCN(C(=O)C3CCC3)C2)c1F (centres unmarked) [Compound I-274]
> 100 µM	> 100 µM	O=C(NNS(=O)(=O)C1CCCCC1)c1c(Cl)ccc(-c2ccccc2)c1Cl [Compound I-275]
10 to 50 µM	≤ 10 µM	Cc1cc(Cl)cc(C(=O)NNS(=O)(=O)CC2CCCCC2)c1F [Compound I-276]
10 to 50 µM	10 to 50 µM	COCCN1CCC(C(C)S(=O)(=O)NNC(=O)c2cc(-c3ccccc3)cc(C)c2F)CC1 (centres unmarked) [Compound I-277]
> 100 µM	50 to 100 µM	Cc1cc(-c2cccc(F)c2)cc(C(=O)NNS(=O)(=O)CC2CCCNC2)c1F (centres unmarked) [Compound I-278]
≤ 10 µM	10 to 50 µM	COCCOc1cccc(-c2cc(C)c(F)c(C(=O)NNS(=O)(=O)c3ccccc3)c2)c1 [Compound I-279]
≤ 10 µM	≤ 10 µM	CCC(=O)N1CCCC(CS(=O)(=O)NNC(=O)c2cc(-c3ccccc3)cc(C)c2F)C1 (centres unmarked) [Compound I-280]
≤ 10 µM	≤ 10 µM	Cc1cc(-c2ccccc2)cc(C(=O)NNS(=O)(=O)CC2CCCN(C(=O)C(C)(C)C)C2)c1F (centres unmarked) [Compound I-281]
10 to 50 µM	50 to 100 µM	Cc1cc(-c2ccccc2)cc(C(=O)Nc2n[nH]c3ncccc23)c1F [Compound I-282]
> 100 µM	> 100 µM	Cn1cnc2c(C(=O)NNS(=O)(=O)C3CCCCC3)cc(-c3ccccc3)cc21 [Compound I-283]
> 100 µM	> 100 µM	Nc1ncc(-c2ccc(-c3ccccc3)cc2F)n1S(=O)(=O)c1ccccc1 [Compound I-284]
≤ 10 µM	≤ 10 µM	Cc1cc(-c2cccc(F)c2)cc(C(=O)NNS(=O)(=O)CC2CCCN(C(=O)OC(C)(C)C)C2)c1F (centres unmarked) [Compound I-285]
> 100 µM	> 100 µM	Cc1cc(C2CCCN(C)C2)cc(C(=O)NNS(=O)(=O)C2CCCCC2)c1F (centres unmarked) [Compound I-287]
10 to 50 µM	10 to 50 µM	Cc1nc(-c2ccccc2)cc(C(=O)NNS(=O)(=O)C2CCCCC2)c1F [Compound I-288]
≤ 10 µM	≤ 10 µM	COCC(=O)N1CCCC(CS(=O)(=O)NNC(=O)c2cc(-c3cccc(F)c3)cc(C)c2F)C1 (centres unmarked) [Compound I-289]
> 100 µM	> 100 µM	C=CCn1nc(NNS(=O)(=O)c2ccccc2)c2ccccc21 [Compound I-290]
≤ 10 µM	≤ 10 µM	Cc1nc(-c2cccc(F)c2)cc(C(=O)NNS(=O)(=O)CC2CCCN(C(=O)C3CCC3)C2)c1F (centres unmarked) [Compound I-291]
